ChEMBL document CHEMBL4507291 (2021)

What was measured:
[1] = biological target: Mitogen-activated protein kinase kinase kinase 14 (Homo sapiens) (UniProt Q99558)
[2] = biological target: Serine/threonine-protein kinase 35 (Homo sapiens) (UniProt Q8TDR2)
[3] = biological target: Sodium-dependent noradrenaline transporter (Homo sapiens, UniProt P23975); conditions: Compound concentration 10.0 uM
[4] = biological target: T1, Serine/threonine-protein kinase Nek2 (Homo sapiens) (UniProt P51955)
T1 sequence (whole entry): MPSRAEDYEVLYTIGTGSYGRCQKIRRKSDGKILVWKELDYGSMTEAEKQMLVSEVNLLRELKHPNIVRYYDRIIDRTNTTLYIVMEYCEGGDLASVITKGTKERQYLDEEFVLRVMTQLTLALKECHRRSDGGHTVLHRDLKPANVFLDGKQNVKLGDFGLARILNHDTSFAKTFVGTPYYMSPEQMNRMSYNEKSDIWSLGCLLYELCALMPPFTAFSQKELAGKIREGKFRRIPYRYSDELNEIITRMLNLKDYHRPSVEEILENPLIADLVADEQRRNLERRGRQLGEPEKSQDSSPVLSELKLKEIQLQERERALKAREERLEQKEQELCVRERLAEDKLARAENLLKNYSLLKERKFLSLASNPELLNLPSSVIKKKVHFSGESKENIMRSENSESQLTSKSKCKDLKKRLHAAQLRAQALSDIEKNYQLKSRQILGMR

[5] = biological target: T2, Megakaryocyte-associated tyrosine-protein kinase (Homo sapiens) (UniProt P42679)
T2 sequence (whole entry): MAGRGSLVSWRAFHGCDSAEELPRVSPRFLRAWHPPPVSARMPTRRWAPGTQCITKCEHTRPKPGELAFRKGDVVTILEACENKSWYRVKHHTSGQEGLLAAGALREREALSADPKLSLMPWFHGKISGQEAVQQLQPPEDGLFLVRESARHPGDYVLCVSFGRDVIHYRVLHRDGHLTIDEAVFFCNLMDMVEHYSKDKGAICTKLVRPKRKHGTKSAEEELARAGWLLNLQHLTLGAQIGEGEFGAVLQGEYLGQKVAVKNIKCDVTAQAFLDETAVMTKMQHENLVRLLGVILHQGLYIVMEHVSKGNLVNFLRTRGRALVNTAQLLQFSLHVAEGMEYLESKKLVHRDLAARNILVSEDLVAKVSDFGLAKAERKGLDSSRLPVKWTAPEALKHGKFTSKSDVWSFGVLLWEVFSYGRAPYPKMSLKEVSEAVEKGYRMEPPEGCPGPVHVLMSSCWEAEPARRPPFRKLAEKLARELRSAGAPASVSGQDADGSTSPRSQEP

[6] = system: Epidermal growth factor receptor (Homo sapiens), P00533 [UNDEFINED MUTATION]
[7] = biological target: T3, Serine/threonine-protein kinase D2 (Homo sapiens) (UniProt Q9BZL6)
T3 sequence (whole entry): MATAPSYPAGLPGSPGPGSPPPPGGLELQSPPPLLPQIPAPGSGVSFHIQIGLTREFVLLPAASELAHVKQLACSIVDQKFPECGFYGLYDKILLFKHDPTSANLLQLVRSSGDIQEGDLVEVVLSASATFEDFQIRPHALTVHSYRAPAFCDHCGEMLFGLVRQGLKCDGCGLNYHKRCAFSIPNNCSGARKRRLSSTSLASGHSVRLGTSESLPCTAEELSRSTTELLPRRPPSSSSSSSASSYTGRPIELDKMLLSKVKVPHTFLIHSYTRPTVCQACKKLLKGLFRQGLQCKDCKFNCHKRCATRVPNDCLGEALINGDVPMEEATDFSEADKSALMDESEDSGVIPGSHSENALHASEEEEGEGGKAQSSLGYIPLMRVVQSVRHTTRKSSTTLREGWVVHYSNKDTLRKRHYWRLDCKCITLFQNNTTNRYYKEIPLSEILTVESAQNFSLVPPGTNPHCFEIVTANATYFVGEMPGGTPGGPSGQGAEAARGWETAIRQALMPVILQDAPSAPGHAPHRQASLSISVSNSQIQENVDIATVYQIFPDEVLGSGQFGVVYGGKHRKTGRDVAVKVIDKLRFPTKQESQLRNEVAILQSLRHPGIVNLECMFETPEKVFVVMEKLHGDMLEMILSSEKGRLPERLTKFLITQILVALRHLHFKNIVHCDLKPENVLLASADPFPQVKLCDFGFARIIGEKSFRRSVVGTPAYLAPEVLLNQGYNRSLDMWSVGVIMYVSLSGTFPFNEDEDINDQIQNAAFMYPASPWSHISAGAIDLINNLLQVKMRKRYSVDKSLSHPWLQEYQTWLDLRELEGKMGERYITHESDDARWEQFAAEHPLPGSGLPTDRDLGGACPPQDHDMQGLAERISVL

[8] = biological target: Cyclin-dependent kinase 8 (Homo sapiens) (UniProt P49336)
[9] = biological target: Serine/threonine-protein kinase 24 (Homo sapiens) (UniProt Q9Y6E0)
[10] = biological target: T4, Dual specificity mitogen-activated protein kinase kinase 3 (Homo sapiens) (UniProt P46734)
T4 sequence (whole entry): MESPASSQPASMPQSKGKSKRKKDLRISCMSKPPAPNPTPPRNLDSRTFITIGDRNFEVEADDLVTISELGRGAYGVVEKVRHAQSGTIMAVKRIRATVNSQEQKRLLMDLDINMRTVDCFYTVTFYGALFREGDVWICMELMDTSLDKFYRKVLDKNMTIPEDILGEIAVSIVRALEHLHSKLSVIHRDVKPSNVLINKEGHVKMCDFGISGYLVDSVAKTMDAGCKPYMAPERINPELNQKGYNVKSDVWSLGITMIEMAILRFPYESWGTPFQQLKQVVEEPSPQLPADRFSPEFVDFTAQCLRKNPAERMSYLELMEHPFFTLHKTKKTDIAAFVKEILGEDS

[11] = biological target: Mitogen-activated protein kinase 4 (Homo sapiens) (UniProt P31152)
[12] = biological target: SNF-related serine/threonine-protein kinase (Homo sapiens) (UniProt Q9NRH2)
[13] = biological target: Mitogen-activated protein kinase 10 (Homo sapiens) (UniProt P53779)
[14] = biological target: Wee1-like protein kinase (Homo sapiens) (UniProt P30291)
[15] = biological target: Serine/threonine-protein kinase WNK3 (Homo sapiens) (UniProt Q9BYP7)
[16] = biological target: Ephrin type-A receptor 2 (Homo sapiens) (UniProt P29317)
[17] = Compound concentration 1000.0 nM
[18] = Compound concentration 100.0 nM

Sequence of Ephrin type-A receptor 2 (Homo sapiens) (P29317 whole entry): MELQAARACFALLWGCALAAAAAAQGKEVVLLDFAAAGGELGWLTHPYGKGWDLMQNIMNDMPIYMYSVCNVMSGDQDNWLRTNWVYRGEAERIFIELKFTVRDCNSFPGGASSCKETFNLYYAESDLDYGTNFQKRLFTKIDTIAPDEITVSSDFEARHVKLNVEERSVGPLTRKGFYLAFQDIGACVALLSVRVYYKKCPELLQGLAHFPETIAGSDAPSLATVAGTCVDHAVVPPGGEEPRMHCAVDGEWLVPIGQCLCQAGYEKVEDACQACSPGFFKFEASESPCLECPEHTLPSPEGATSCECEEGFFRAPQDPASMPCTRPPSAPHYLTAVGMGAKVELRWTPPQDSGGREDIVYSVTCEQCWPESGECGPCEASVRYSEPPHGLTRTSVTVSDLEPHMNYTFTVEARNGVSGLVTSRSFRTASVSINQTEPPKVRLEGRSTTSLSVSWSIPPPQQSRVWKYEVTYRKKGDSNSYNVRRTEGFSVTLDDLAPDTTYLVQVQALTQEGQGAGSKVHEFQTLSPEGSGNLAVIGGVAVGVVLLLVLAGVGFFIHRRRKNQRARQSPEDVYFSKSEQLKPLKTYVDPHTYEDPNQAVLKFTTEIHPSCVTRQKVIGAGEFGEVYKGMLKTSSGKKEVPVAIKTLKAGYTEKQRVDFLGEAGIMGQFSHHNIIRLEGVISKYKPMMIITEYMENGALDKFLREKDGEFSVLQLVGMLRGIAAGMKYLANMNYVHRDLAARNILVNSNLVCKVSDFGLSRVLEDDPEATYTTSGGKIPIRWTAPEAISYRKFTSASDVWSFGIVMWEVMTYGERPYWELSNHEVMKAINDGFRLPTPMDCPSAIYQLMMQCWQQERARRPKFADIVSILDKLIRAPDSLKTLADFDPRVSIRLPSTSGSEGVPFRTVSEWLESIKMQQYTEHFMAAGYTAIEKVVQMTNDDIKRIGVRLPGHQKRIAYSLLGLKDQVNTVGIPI
Sequence of Mitogen-activated protein kinase 10 (Homo sapiens) (P53779 whole entry): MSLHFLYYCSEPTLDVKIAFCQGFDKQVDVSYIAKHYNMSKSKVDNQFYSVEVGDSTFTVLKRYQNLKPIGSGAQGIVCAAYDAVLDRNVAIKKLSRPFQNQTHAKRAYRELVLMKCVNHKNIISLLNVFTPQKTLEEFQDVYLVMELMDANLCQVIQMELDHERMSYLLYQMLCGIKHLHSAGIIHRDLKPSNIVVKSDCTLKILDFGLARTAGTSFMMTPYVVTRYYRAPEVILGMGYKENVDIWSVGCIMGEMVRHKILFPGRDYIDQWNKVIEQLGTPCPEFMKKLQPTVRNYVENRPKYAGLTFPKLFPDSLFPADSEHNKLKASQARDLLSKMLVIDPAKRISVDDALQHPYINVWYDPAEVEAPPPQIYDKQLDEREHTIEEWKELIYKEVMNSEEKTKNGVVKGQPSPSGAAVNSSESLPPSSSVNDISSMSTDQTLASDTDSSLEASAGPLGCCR
Sequence of Epidermal growth factor receptor (Homo sapiens), P00533 [UNDEFINED MUTATION] (P00533 whole entry, looked up, change not shown): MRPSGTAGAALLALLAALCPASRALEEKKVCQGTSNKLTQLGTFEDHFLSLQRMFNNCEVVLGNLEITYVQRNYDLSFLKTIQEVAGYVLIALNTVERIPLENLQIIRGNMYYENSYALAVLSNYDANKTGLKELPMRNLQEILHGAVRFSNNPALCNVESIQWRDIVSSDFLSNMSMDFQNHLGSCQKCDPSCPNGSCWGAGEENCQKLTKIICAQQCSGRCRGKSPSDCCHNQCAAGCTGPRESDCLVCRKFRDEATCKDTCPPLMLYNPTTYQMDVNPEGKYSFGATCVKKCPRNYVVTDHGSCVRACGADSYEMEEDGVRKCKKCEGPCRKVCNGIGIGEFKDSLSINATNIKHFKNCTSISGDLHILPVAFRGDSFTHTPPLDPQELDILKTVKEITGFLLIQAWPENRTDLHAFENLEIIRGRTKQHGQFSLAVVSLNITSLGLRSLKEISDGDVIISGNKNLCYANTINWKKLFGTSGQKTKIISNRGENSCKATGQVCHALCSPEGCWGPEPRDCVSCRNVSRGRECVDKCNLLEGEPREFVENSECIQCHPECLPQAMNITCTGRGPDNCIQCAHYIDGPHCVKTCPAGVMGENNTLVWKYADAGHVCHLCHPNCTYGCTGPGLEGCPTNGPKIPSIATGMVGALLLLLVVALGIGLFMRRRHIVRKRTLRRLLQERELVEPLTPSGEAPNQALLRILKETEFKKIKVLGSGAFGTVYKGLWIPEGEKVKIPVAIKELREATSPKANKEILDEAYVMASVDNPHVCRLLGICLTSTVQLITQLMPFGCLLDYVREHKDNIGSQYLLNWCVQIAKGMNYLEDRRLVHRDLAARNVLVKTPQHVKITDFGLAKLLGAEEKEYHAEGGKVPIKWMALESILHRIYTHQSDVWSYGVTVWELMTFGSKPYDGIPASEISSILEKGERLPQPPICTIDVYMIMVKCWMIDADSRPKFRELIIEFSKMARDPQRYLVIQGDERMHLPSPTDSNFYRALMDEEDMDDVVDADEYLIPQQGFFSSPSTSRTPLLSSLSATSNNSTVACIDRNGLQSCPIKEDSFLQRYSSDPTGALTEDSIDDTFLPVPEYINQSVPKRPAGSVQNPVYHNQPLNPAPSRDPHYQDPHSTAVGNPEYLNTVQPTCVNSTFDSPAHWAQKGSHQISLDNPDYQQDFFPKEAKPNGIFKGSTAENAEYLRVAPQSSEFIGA
Sequence of Mitogen-activated protein kinase kinase kinase 14 (Homo sapiens) (Q99558 whole entry, looked up): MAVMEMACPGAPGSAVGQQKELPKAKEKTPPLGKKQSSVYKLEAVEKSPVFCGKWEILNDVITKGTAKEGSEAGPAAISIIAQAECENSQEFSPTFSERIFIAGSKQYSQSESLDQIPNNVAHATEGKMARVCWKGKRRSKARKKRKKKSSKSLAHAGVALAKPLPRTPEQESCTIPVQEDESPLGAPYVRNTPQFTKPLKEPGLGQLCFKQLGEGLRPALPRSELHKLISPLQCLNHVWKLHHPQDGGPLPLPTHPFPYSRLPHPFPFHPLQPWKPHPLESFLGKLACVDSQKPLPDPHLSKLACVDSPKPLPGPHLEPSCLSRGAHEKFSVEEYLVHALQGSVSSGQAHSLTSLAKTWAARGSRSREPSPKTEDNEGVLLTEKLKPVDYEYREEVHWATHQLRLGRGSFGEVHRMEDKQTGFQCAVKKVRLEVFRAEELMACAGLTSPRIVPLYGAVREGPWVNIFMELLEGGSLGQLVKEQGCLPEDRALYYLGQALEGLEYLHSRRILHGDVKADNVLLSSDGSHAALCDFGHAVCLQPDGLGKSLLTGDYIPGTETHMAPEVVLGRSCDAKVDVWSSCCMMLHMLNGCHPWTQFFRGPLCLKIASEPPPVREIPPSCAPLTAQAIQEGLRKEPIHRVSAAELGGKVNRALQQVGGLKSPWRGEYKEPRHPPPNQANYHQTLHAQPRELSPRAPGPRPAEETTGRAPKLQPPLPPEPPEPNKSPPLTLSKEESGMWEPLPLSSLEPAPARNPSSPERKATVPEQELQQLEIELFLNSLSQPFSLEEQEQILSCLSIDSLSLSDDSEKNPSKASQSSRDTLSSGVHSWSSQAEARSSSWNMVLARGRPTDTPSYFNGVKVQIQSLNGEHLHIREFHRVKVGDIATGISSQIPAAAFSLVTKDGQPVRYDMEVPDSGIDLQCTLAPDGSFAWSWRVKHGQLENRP
Sequence of Serine/threonine-protein kinase 35 (Homo sapiens) (Q8TDR2 whole entry): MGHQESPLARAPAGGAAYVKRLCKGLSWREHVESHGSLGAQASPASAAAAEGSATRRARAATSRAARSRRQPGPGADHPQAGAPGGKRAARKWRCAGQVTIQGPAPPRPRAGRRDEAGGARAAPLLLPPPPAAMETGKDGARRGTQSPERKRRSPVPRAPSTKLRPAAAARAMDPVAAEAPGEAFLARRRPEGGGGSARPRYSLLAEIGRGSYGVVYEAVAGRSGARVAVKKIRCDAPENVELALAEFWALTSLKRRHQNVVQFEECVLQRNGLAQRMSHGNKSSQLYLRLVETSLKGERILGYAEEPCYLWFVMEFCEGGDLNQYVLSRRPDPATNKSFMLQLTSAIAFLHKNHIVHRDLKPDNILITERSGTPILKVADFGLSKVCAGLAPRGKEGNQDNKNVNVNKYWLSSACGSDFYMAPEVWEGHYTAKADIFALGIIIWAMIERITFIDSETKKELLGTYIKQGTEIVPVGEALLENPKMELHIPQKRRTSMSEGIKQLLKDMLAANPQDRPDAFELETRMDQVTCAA
Sequence of SNF-related serine/threonine-protein kinase (Homo sapiens) (Q9NRH2 whole entry): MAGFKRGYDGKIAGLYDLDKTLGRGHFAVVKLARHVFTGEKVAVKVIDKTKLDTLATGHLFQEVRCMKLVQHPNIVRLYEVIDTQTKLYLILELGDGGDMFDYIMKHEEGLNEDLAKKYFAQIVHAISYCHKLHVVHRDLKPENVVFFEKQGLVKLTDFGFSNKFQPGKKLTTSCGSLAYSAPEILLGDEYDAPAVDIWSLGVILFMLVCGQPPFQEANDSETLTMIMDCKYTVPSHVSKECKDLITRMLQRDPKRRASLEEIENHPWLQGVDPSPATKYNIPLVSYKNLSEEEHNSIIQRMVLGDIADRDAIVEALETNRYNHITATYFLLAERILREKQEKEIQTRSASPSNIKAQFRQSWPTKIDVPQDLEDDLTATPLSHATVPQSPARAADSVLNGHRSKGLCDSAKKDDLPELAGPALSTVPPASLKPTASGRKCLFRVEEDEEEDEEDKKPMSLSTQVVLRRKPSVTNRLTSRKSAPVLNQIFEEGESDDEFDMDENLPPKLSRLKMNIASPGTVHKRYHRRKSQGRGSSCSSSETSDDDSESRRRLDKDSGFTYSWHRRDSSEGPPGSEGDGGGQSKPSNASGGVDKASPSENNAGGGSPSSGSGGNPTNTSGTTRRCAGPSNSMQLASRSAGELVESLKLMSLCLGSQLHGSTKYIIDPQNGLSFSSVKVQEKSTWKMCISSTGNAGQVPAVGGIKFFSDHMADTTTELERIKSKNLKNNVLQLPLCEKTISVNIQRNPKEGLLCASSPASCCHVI

C[C@@H]1CN(c2cc(-c3nn(C)c4ccc(OC5(C)CC5)cc34)ncn2)C[C@H](C)O1 [MLi-2-NC]
inactive: residual activity [1, 17] 100% | residual activity [2, 17] 100% | inhibition [3] 30.6% | residual activity [4, 17] 100% | residual activity [5, 17] 80% | residual activity [6, 17] 67% | residual activity [7, 17] 90% | residual activity [8, 17] 100% | residual activity [9, 17] 79% | residual activity [10, 17] 70% | residual activity [11, 17] 93% | residual activity [12, 17] 92% | residual activity [13, 17] 71% | residual activity [14, 17] 100% | residual activity [15, 17] 91% | residual activity [16, 17] 100%

C[C@@H]1CN(c2cc(-c3n[nH]c4ccc(OC5(C)CC5)cc34)ncn2)C[C@H](C)O1 [MLi-2]
inactive: residual activity [1, 18] 64% | residual activity [2, 18] 85% | inhibition [3] 7.45% | residual activity [4, 18] 86% | residual activity [5, 18] 94% | residual activity [6, 18] 53% | residual activity [7, 18] 100% | residual activity [8, 18] 63% | residual activity [9, 18] 96% | residual activity [10, 18] 71% | residual activity [11, 18] 83% | residual activity [12, 18] 94% | residual activity [13, 18] 77% | residual activity [14, 18] 97% | residual activity [15, 18] 73% | residual activity [16, 18] 72%
